Data as given in paper PMC8016166, “Identification of a Potent and Selective 5-HT1A Receptor Agonist with In Vitro and In Vivo Antinociceptive Activity” (ACS Chemical Neuroscience, 2020).

Experiments:
5-HT1AR [1] = molecular target: T1, 5-HT1AR (Rattus norvegicus, UniProt P19327); assay: [35S]GTPγS functional 5-HT1A assay in rat hippocampal membranes; format: biochemical; settings: read-out: 5-HT1A Emax (%) ± SEM
T1 construct: from tissue; hippocampus per the main-text methods
T1 sequence (P19327 1-422): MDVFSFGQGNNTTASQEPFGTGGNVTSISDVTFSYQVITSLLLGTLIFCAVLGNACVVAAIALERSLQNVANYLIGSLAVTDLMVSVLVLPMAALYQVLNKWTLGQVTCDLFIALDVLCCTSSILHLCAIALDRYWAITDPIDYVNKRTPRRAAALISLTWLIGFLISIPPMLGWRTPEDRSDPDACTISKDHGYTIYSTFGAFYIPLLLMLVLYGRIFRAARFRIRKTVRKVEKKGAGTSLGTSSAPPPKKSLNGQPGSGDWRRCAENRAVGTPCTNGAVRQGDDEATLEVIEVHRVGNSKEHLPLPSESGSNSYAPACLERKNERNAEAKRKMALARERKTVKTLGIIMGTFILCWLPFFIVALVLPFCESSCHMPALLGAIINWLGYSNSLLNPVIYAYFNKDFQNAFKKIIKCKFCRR
Method: (§1) Male Sprague–Dawley rats were decapitated and their brains removed and placed on ice. The hippocampi (for the functional 5-HT1A receptor assay) or frontal cortexes (for the competitive 5-HT2A and 5-HT2C receptor assays) were dissected and homogenized with a glass homogenizer in 30 vol. ice-cold TED buffer (50 mMTris-HCl, 1 mM EDTA, 1 mM dithiotheritol, pH 7.4). Next, the homogenate was centrifuged at 21 000g for 30 min at 4 °C. The pellet was suspended in 30 vol TED buffer (pH 7.4) and incubated in a water bath for 10 min at 37 °C to remove endogenous ligands. The suspension was centrifuged again at 21 000g for 30 min at 4 °C. The pellet was resuspended in 30 vol TED buffer (pH 7.4) and the centrifugation step was repeated. The final pellet was suspended in 10 vol 50 mM Tris-HCl (pH 7.4) and stored at −80 °C until use.[47]
(§2) The [^35S]GTPγS assay was performed according to the method described previously.[49] […] Nonspecific binding was determined with 100 μM of unlabeled GTPγS. The reaction mixture was incubated for 90 min at 36 °C in a volume of 250 μL. […] Next, 96-well Unifilter Plates (PerkinElmer, USA) were presoaked for 1 h with 50 mM Tris-HCl (pH = 7.4) before harvesting. The reaction was terminated by vacuum filtration onto filter plates with the Filter Mate Harvester (PerkinElmer, USA). The samples were then rapidly washed with 2 mL of 50 mM Tris-HCl (pH = 7.4) buffer. The filter plates were dried for 2 h at 50 °C. After drying, 45 μL of EcoScint-20 scintillant (PerkinElmer, USA) was added to every well. The radioactivity was counted in a Trilux MicroBeta^2 counter (PerkinElmer, USA). The data were analyzed with GraphPad Prism 5.0 software (GraphPad Software, San Diego California USA, www.graphpad.com). To determine whether compound-stimulated [^35S]GTPγS binding involved 5-HT1A receptors, two protocols were used.
The curves were fitted with a one-site nonlinear regression model. Efficacy (Emax) and potency (pEC50) were calculated from […] from three separate experiments and expressed as the means ± SEM. […] The differences in compound potency and efficacy were evaluated with one-way ANOVA followed by the Bonferroni’s post-hoc test. The baseline G-protein stimulation was set at 100%. One, two, or three symbols represent statistical significance of 0.05, 0.01, and 0.001, respectively.

[2] = system: superficial dorsal horn neurons (lamina I–II); assay: Patch-clamp recording from spinal cord slices; format: cell-based, mouse
Method: The Italian Ministry of Health approved all the experiments that were conducted on postnatal CD1 mice (P18–P25) in accordance with the Guide for the Care and Use of Laboratory Animals and the EU and Italian regulations on animal welfare. The spinal cord slices were obtained following the procedure described previously.[69],[70] Briefly, the animals were anesthetized with isoflurane and decapitated, the spinal cord and vertebrae were rapidly removed and placed in ice-cold dissecting Krebs’ solution (composition in mM:125 NaCl, 2.5 KCl, 1.25 NaH2PO4, 26 NaHCO3, 25 glucose, 6 MgCl2, 1.5 CaCl2, and 1 kynurenic acid, pH 7.4, 320 mOsm), bubbled with 95% O2, 5% CO2. The lumbar spinal cord was isolated, embedded in an agarose block (low melting point agarose 3%, Thermo Fisher Scientific, Waltham, USA), and transverse slices (500 μm thick) were obtained using a vibrating microtome (WPI, Sarasota, USA). The slices were incubated in oxygenated incubation Krebs’ solution (the same as dissecting but without kynurenic acid) at 35 °C for 30 min and used for recording. The Patch-clamp recording in whole-cell configuration was performed on lamina I–II neurons at room temperature. The slices were perfused at 2 mL/min with recording Krebs’solution (in mM: 125 NaCl, 2.5 KCl, 1.25 NaH2PO4, 26 NaHCO3, 25 glucose, 1 MgCl2, and 2 CaCl2, pH 7.4, 320 mOsm). Recordings of post-synaptic currents (EPSCs) were performed in voltage clamp, by using an intracellular solution with the following composition (in mM): 120 potassium methanesulfonate, 10 NaCl, 10 EGTA, 1 CaCl2, 10 HEPES, 5 ATP-Mg, pH adjusted to 7.2 with KOH, osmolarity 300 mOsm. 8-OH-DPAT was obtained from Sigma-Aldrich (Saint Louis, USA). The data were recorded and acquired using a Multiclamp 700A amplifier and the pClamp 10 software (Molecular Devices, Sunnyvale, USA). The sampling rate was 10 kHz, and the data were filtered at 2 kHz. The data were analyzed off-line using pClamp10 software and Minianalysis (Synaptosoft, USA). The data are expressed as the mean ± SEM and differences were considered significant for p < 0.05. The statistical significance for the effect on EPSC frequency was determined using the Kolmogorov–Smirnov test on individual neurons.

5-HT1AR [3] = molecular target: T1, 5-HT1AR; assay: Effect of WAY100635 on compound-stimulated [35S]GTPγS binding (Tables SI-1, SI-2); format: biochemical
Method: as §2, with “used. […]” for “used.”
WAY).) Results were expressed as means ± SEM. Curves were fitted with a one-site sigmoidal dose-response equation […]
calculated as the ratio of pEC50 in the presence of WAY100635 divided by the pEC50 of agonist alone. Basal 5-HT1AR activation was set to 100%. Results were analyzed with one-way ANOVA followed by the Bonferroni’s post-hoc test. […]
WAY100635 (10^-10 M - 10^-5 M, WAY). Results were expressed as means ± SEM. Curves were fitted with a one-site sigmoidal dose-response equation and Emax (%) of the EC80 agonist concentration alone and in the presence of WAY100635 were determined from 2 independent experiments. Basal (no ligand added) [35S]GTPγS binding was set to 100%. Results were analyzed with one-way ANOVA followed by the Bonferroni’s post-hoc test.

Male Swiss CB1 mice = assay: Formalin test; format: in vivo, mouse
Method: Male Swiss CB1 mice (Envigo, S. Pietro al Natisone (UD)) weighing 25–30 g were used. The animals were kept at a constant room temperature (25 ± 1 °C) under a 12:12 h light and dark cycle, with free access to food and water. Each mouse was used for only one experiment. […] All the tests were performed blind to treatment.
The formalin (5%, 10 μL; Sigma-Aldrich) was injected subcutaneously into the plantar side of the right hind paw.[68] After injection, the mice were immediately placed in a plexiglas box: the total time (in seconds) spent on licking or biting the injected hind paw was recorded every 5 min at selected intervals, 0–10 (phase I) and 10–60 (phase II) min, in the different experimental groups, as an indicator of nociceptive behavior. […] A mean response was then calculated for each phase. […] A vehicle solution containing 10% DMSO was given as a control. Morphine was used as positive control. The test compound and vehicle were […] (i.p.) administered (5 mL/kg) 15 min before the formalin. […] The data are expressed as mean values (SEM). Analyses of variance (two-way repeated measures ANOVA followed by post hoc Bonferroni test) were performed to assess significance using the Instat 3.0 software (GraphPad Software, San Diego, CA). p < 0.05 was considered significant.

5-HT2CR = molecular target: T2, 5-HT2CR (Rattus norvegicus, UniProt P08909); assay: Radioligand binding at 5-HT2C on rat frontal cortex membranes; settings: rat frontal cortex membranes; [3H]mesulergine
T2 construct: from tissue; host or cells: frontal cortex of male Sprague-Dawley rats
T2 sequence (P08909 33-460): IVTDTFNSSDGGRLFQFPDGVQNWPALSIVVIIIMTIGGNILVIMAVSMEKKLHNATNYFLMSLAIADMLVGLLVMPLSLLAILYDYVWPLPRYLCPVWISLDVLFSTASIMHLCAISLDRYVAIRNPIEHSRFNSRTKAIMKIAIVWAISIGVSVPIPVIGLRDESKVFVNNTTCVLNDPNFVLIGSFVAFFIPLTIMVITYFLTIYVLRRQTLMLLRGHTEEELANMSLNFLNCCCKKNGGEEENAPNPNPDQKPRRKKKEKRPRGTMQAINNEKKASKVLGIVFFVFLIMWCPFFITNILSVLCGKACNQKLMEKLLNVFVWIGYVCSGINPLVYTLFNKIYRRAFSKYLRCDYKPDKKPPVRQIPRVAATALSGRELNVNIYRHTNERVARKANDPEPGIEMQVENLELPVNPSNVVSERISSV
Method: as §1
The 5-HT2A assay was performed according to a previously described protocol with some modifications.[48] […] Nonspecific binding was determined in the presence of 10 μM mianserin. For the 5-HT2C assay, the frontal cortex homogenates (250 μg protein/mL) were incubated in triplicate with 1 nM [^3H]mesulergine for 60 min at 36 °C in a 50 mM Tris-HCl (pH 7.4) buffer containing 0.1% ascorbate, 10 mM MgCl2, 10 μM pargyline, 100 nM spiperone, and increasing concentrations (10^–10–10^–5 M) of the compound tested. After incubation, the reaction mixture was deposited onto UniFilter-96 GF/B plates, with the aid of a FilterMate-96 Harvester. The filter plates were presoaked with 0.4% PEI for 1 h. Next, each filter well was washed with 1.75 mL of 50 mM Tris-HCl (pH 7.4) and left to dry on a heating block set to 50 °C for 2 h. Then, 45 μL of Microscint-20 scintillation fluid was added to each filter well and left to equilibrate overnight. The filter-bound radioactivity was counted in a MicroBeta^2 Microplate Counter. Curves were fitted with a one-site sigmoidal dose–response equation and pKi for each compound was calculated with the Cheng-Pursoff equation. Results were analyzed with one-way ANOVA followed by the Bonferroni’s posthoc test. The results are expressed as means ± SEM of three independent experiments.

CCCN(CCC)C1CCc2cccc(O)c2C1 (stereo not drawn) [8-OH-DPAT, reference compound]
Emax (5-HT1AR [1]): 152 ± 2.4% | neurons showing sEPSC frequency decrease ([2]; 10 μM): 4 out of 11 | neurons showing slow outward current ([2]; bath application 10 μM, voltage clamp −60 mV): 6 out of the 11 | Emax (5-HT1AR [3]; read-out: Emax (%) ± SEM of EC80 agonist concentration alone): 142 ± 19.4% | Emax (5-HT1AR [3]; read-out: Emax (%) ± SEM, compound alone): 152 ± 2.4%

CN1CC[C@]23c4c5ccc(O)c4O[C@H]2[C@@H](O)C=C[C@H]3[C@H]1C5 [Morphine, reference compound]
analgesic effect in first and second phases of the formalin test (Male Swiss CB1 mice; 10 mg/kg i.p., formalin 5% 10 μL intraplantar): essentially eliminated the response to formalin

COc1ccccc1N1CCN(CCN(C(=O)C2CCCCC2)c2ccccn2)CC1 [WAY-100635, reference compound]
licking response after formalin, per se (Male Swiss CB1 mice; 3 mg/kg i.p.): did not alter the licking response

COc1cc(OC)c(C(=O)CCCCN2CCC3(CC2)NC(=O)NC3=O)cc1NS(=O)(=O)c1ccc(C(F)(F)F)cc1 [RS-102221, reference compound]
5-HT2C pKi ± SEM (5-HT2CR): 8.34 ± 0.12

NCCc1c[nH]c2ccc(O)cc12 [serotonin, reference compound]
Emax (5-HT1AR [1]; rat hippocampal membranes, basal 5-HT1AR activation set to 100%): 192 ± 4.9%
